According to US12492199B2, “Pyridopyrimidines as histamine H4-receptor inhibitors” (FAES FARMA, S.A., priority 2018, dated 2025):
Where two headings read alike, the source gives them in different places.

Tests used:
human H1 receptor = human H1 receptor (Homo sapiens (Human), UniProt P35367); assay: H1 Binding assay ([3H]pyrilamine competition, membranes from CHO-K1 cells transfected with human H1 receptor); details: affinity for human histamine H1 receptor, class symbols; — not defined in key; read-out: ACTIVITY CLASS hH1R (Ki)
Description: Cetirizine and pyrilamine were supplied by Sigma-Aldrich. Bilastine was synthetized at FAES FARMA facilities (Lamiako-Leioa, Spain), chemical reagents such as Na2HPO4, KH2PO4 or polyvinylpyrrolidone as well as multiscreen microplates (MSFBN6B50) were purchased from Merck Millipore, scintillation liquid (Microscint 20), human H1 membranes (ES-390-M400UA) and ^3H-pirilamina (NET 594) were provided by PerkinElmer.
Affinity for histamine H1-receptor was determined by H1 Binding assay: • Membranes form CHO-K1 cells transfected with human H1 receptor and microplates of 96-well format were used. • For competition studies cell membranes were homogenated in 50 mM phosphate buffer (Na2HPO4 and KH2PO4 mixed to pH 7.4 at 25° C.) and added to the microplate at the concentration of approximately 5 μg/well. […] Non specific binding was defined using 10 μM unlabeled pyrilamine and the total incubation volume was 275 μl per well. • Incubations were performed until gentle agitation at 25° C. for 60 min and concluding with a rapid vacuum filtration using pre-soaked filters (5% polyvinylpyrrolidone). After ten rapid washes with cold wash buffer (50 mM phosphate buffer) the filter plates were dried at room temperature for 30 min. • Finally, scintillation liquid (Microscint 20) was added to the whole microplate in order to measure the radioactivity retained on the filters using an specific scintillation counter (Top Count—NXT). Curve analysis and values of IC50 were determined using Grap Pad Prism program (GraphPad Software, San Diego, USA). • Test compounds were initially evaluated at one concentration (1 μM) and thereafter if significant displacement was observed (>40%) a concentration-response curve was conducted. Each test concentration was measured in triplicate. • As reference compounds pyrilamine, cetirizine and Bilastine were used.

human H4 receptor = human H4 receptor (Homo sapiens (Human), UniProt Q9H3N8); assay: H4 Binding assay ([3H]histamine competition, membranes from CHO-K1 cells transfected with human H4 receptor)
Description: Affinity for histamine H4-receptor was determined by H4 Binding assay:
• Membranes from CHO-K1 cells transfected with human H4 receptor and microplates of 96-well format were used. • For competition studies cell membranes were homogenated in Tris-HCl 50 mM, EDTA 5 mM, pH 7.4 and added to the microplate at the concentration of approximately 15 μg/well. […] Non specific binding was defined using 10 μM unlabeled histamine and the total incubation volume was 275 μl per well. • Incubations were performed under gentle agitation at 25° C. for 60 min and concluding with a rapid vacuum filtration using pre-soaked filters (0.5% polyethylenimine). After ten rapid washes with cold wash buffer (50 mM Tris-HCl buffer) the filter plates were dried at room temperature for 30 min. • Finally, scintillation liquid (Microscint 20) was added to the whole microplate in order to measure the radioactivity reattained on the filters using a specific scintillation counter (Top Count—NXT). […] H1 Binding Assay Materials

[1] = affinity for human histamine H4 receptor, class symbols, read-out: ACTIVITY CLASS hH4R (Ki)

human H4 receptor, sequence (Q9H3N8 whole entry): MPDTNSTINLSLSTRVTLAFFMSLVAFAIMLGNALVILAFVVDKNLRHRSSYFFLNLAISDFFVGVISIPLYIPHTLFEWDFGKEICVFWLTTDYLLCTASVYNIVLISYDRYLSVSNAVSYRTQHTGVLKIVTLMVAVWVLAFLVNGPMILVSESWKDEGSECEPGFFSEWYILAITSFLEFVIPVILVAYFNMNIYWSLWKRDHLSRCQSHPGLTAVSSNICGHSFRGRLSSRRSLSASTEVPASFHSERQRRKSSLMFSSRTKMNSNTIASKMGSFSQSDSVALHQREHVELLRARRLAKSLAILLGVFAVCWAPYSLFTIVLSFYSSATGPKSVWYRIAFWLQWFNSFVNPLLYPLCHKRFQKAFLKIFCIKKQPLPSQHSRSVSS
human H1 receptor, sequence (P35367 whole entry): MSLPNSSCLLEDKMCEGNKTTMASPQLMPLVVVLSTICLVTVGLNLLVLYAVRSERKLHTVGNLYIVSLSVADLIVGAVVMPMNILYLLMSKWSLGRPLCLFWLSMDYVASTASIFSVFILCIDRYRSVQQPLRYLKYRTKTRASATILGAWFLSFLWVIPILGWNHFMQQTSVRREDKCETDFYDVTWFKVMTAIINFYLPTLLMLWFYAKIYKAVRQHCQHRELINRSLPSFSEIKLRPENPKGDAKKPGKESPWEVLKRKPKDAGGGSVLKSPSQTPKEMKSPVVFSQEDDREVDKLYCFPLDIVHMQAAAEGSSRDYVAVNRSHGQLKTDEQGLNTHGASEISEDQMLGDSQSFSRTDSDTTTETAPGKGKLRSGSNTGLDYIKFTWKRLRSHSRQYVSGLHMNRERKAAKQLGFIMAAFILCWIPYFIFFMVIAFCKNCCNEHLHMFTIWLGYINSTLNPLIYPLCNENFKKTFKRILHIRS

Compound | Ki (human H1 receptor) | Ki (human H4 receptor; [1]) | other results
Cc1ccsc1CNc1nc(N2CCN(C)CC2)nc2cnc(Cl)cc12 [Example 68, 6-chloro-2-(4-methylpiperazin-1-yl)-N-((3-methylthiophen-2-yl)methyl)pyrido[3,4-d]pyrimidin-4-amine] | < 1 µM | < 1 µM | 
CC(C)c1cc2c(NCCS(=O)(=O)Nc3ccccc3)nc(N3CCN(C)CC3)nc2cn1 [Example 54, 2-((6-isopropyl-2-(4-methylpiperazin-1-yl)pyrido[3,4-d]pyrimidin-4-yl)amino)-N-phenylethane-1-sulfonamide] | < 1 µM | < 0.1 µM | 
COc1ccccc1NS(=O)(=O)CCNc1nc(N2CCN(C)CC2)nc2cnc(Cl)cc12 [Example 74, 2-((6-chloro-2-(4-methylpiperazin-1-yl)pyrido[3,4-d]pyrimidin-4-yl)amino)-N-(2-methoxyphenyl)ethane-1-sulfonamide] | < 1 µM | < 0.1 µM | 
Cc1cc2c(NCc3cccs3)nc(N3CCNCC3)nc2cn1 [Example 60, 6-methyl-2-(piperazin-1-yl)-N-(thiophen-2-ylmethyl)pyrido[3,4-d]pyrimidin-4-amine] | < 1 µM | < 1 µM | 
CN1CCN(c2nc(NCCS(=O)(=O)Cc3ccccc3)c3cc(Cl)ncc3n2)CC1 [Example 94, N-(2-(benzylsulfonyl)ethyl)-6-chloro-2-(4-methylpiperazin-1-yl)pyrido[3,4-d]pyrimidin-4-amine] | < 1 µM | < 0.1 µM | 
CN1CCN(c2nc(NCc3ccsc3)c3cc(Cl)ncc3n2)CC1 [Example 5, 6-chloro-2-(4-methylpiperazin-1-yl)-N-(thiophen-3-ylmethyl)pyrido[3,4-d]pyrimidin-4-amine] | < 1 µM | < 1 µM | 
CN1CCN(c2nc(NCc3ccco3)c3cc(Cl)ncc3n2)CC1 [Example 4, 6-chloro-N-(furan-2-ylmethyl)-2-(4-methylpiperazin-1-yl)pyrido[3,4-d]pyrimidin-4-amine] | < 1 µM | < 0.1 µM | 
CN1CCN(c2nc(NCC[S+]([O-])Cc3ccccc3)c3cc(Cl)ncc3n2)CC1 (centres unmarked) [Example 95, N-(2-(benzylsulfinyl)ethyl)-6-chloro-2-(4-methylpiperazin-1-yl)pyrido[3,4-d]pyrimidin-4-amine] | < 1 µM | < 0.1 µM | 
Clc1cc2c(NCc3cccs3)nc(N3CCNCC3)nc2cn1 [Example 24, 6-chloro-2-(piperazin-1-yl)-N-(thiophen-2-ylmethyl)pyrido[3,4-d]pyrimidin-4-amine] | < 1 µM | < 0.1 µM | 
CN1CCN(c2nc(NCCS(=O)(=O)Nc3ccccc3Cl)c3cc(Cl)ncc3n2)CC1 [Example 72, 2-((6-chloro-2-(4-methylpiperazin-1-yl)pyrido[3,4-d]pyrimidin-4-yl)amino)-N-(2-chlorophenyl)ethane-1-sulfonamide] | < 1 µM | < 0.1 µM | 
Cc1ccc(CNc2nc(N3CCN(C)CC3)nc3cnc(Cl)cc23)s1 [Example 69, 6-chloro-2-(4-methylpiperazin-1-yl)-N-((5-methylthiophen-2-yl)methyl)pyrido[3,4-d]pyrimidin-4-amine] | < 1 µM | < 1 µM | 
CCCc1cc2c(NCc3cccs3)nc(N3CCN(C)CC3)nc2cn1 [Example 49, 2-(4-methylpiperazin-1-yl)-6-propyl-N-(thiophen-2-ylmethyl)pyrido[3,4-d]pyrimidin-4-amine] | < 1 µM | < 1 µM | 
O=S(=O)(CCNc1nc(N2CCN3CCCC3C2)nc2cnc(Cl)cc12)Nc1ccccc1 (centres unmarked) [Example 37, 2-((6-chloro-2-(hexahydropyrrolo[1,2-a]pyrazin-2(1H)-yl)pyrido[3,4-d]pyrimidin-4-yl)amino)-N-phenylethane-1-sulfonamide] |  | < 0.1 µM | 
CN1CCN(c2nc(NCCS(=O)(=O)c3ccccc3)c3cc(Cl)ncc3n2)CC1 [Example 93, 6-chloro-2-(4-methylpiperazin-1-yl)-N-(2-(phenylsulfonyl)ethyl)pyrido[3,4-d]pyrimidin-4-amine] | < 1 µM | < 0.1 µM | 
CCCc1cc2c(NCCc3cccs3)nc(N3CCN(C)CC3)nc2cn1 [Example 50, 2-(4-methylpiperazin-1-yl)-6-propyl-N-(2-(thiophen-2-yl)ethyl)pyrido[3,4-d]pyrimidin-4-amine] |  | < 1 µM | 
CN1CCN(c2nc(NCc3cccs3)c3cc(Cl)ncc3n2)CC1 [Example 3, 6-chloro-2-(4-methylpiperazin-1-yl)-N-(thiophen-2-ylmethyl)pyrido[3,4-d]pyrimidin-4-amine] | < 1 µM | < 0.1 µM | IC50 (human H4 receptor; histamine H4 receptor binding): 0.00174 µM; inhibition at 1 µM (human H4 receptor; histamine H4 receptor binding, compounds initially evaluated at 1 μM): 94%; Ki (human H4 receptor; histamine H4 receptor, comparative compounds, read-out: Ki): 0.00075 µM
O=S(=O)(CCNc1nc(C2=CCNCC2)nc2cnc(Cl)cc12)Nc1ccccc1 [Example 41, 2-((6-chloro-2-(1,2,3,6-tetrahydropyridin-4-yl)pyrido[3,4-d]pyrimidin-4-yl)amino)-N-phenylethane-1-sulfonamide] |  |  | Ki (human H4 receptor): < 0.1 µM
CN1CCN(c2nc(NCCS(=O)(=O)Nc3cccc(Cl)c3)c3cc(Cl)ncc3n2)CC1 [Example 76, 2-((6-chloro-2-(4-methylpiperazin-1-yl)pyrido[3,4-d]pyrimidin-4-yl)amino)-N-(3-chlorophenyl)ethane-1-sulfonamide] |  | < 0.1 µM | 
CN1CCN(c2nc(NCCc3cccs3)c3cc(Cl)ncc3n2)CC1 [Example 6, 6-chloro-2-(4-methylpiperazin-1-yl)-N-(2-(thiophen-2-yl)ethyl)pyrido[3,4-d]pyrimidin-4-amine] |  | < 1 µM | 
Cc1cccc(NS(=O)(=O)CCNc2nc(N3CCN(C)CC3)nc3cnc(Cl)cc23)c1 [Example 79, 2-((6-chloro-2-(4-methylpiperazin-1-yl)pyrido[3,4-d]pyrimidin-4-yl)amino)-N-(m-tolyl)ethane-1-sulfonamide] |  | < 0.1 µM | 
CN1CCN(c2nc(NCCS(=O)(=O)N3CCOCC3)c3cc(Cl)ncc3n2)CC1 [Example 18, 6-chloro-2-(4-methylpiperazin-1-yl)-N-(2-(morpholinosulfonyl)ethyl)pyrido[3,4-d]pyrimidin-4-amine] |  | < 0.1 µM | 
Clc1cc2c(NCc3ccco3)nc(N3CCNCC3)nc2cn1 [Example 25, 6-chloro-N-(furan-2-ylmethyl)-2-(piperazin-1-yl)pyrido[3,4-d]pyrimidin-4-amine] | < 1 µM | < 1 µM | 
O=S(=O)(CCNc1nc(N2CCN3CCCC3C2)nc2cnc(Cl)cc12)N1CCOCC1 (centres unmarked) [Example 38, 6-chloro-2-(hexahydropyrrolo[1,2-a]pyrazin-2(1H)-yl)-N-(2-(morpholinosulfonyl)ethyl)pyrido[3,4-d]pyrimidin-4-amine] |  | < 0.1 µM | 
CN1CCN(c2nc(NCCS(=O)(=O)N(C)c3ccccc3)c3cc(Cl)ncc3n2)CC1 [Example 17, 2-((6-chloro-2-(4-methylpiperazin-1-yl)pyrido[3,4-d]pyrimidin-4-yl)amino)-N-methyl-N-phenylethane-1-sulfonamide] | < 1 µM | < 0.1 µM | 
CC(C)c1cc2c(NCc3cccs3)nc(N3CCN(C)CC3)nc2cn1 [Example 52, 6-isopropyl-2-(4-methylpiperazin-1-yl)-N-(thiophen-2-ylmethyl)pyrido[3,4-d]pyrimidin-4-amine] |  | < 0.1 µM | 
CN1CCN(c2nc(NCCS(=O)(=O)Nc3cccc(Cl)n3)c3cc(Cl)ncc3n2)CC1 [Example 87, 2-((6-chloro-2-(4-methylpiperazin-1-yl)pyrido[3,4-d]pyrimidin-4-yl)amino)-N-(6-chloropyridin-2-yl)ethane-1-sulfonamide] |  | < 1 µM | 
CC(C)c1cc2c(NCc3ccco3)nc(N3CCN(C)CC3)nc2cn1 [Example 51, N-(furan-2-ylmethyl)-6-isopropyl-2-(4-methylpiperazin-1-yl)pyrido[3,4-d]pyrimidin-4-amine] |  | < 1 µM | 
O=S(=O)(CCNc1nc(N2CCNCC2)nc2cnc(Cl)cc12)N1CCOCC1 [Example 28, 6-chloro-N-(2-(morpholinosulfonyl)ethyl)-2-(piperazin-1-yl)pyrido[3,4-d]pyrimidin-4-amine] |  | < 0.1 µM | 
